For assay [1], the system named is BV-2 cells. Kind of assay: ROS assay (CellROX fluorescence, microscopy and flow cytometry). The assay is classed as cell-based, mouse. The procedure:
To measure ROS in BV-2 cells, cells were split into 24 well plates at 5×10^4 cells per well in DMEM+5% FBS and treated with LPS, Triacsin C and vehicle solutions for 18 hours. Next, cells were incubated in DMEM+5% FBS with CellROX™ Orange (1:500, Invitrogen) for 30 min at 37° C., washed twice in PBS, and CellROX™ Orange Intensity was examined by fluorescence microscopy (Keyence Corp., Osaka, Japan). Following microscopic analysis, cells were detached using TripLE, transferred to FACS tubes and CellROX™ Orange intensity was analyzed on BD AccuriC6 flow cytometer.
On the technique in general: A flow cytometer gives signals particle by particle.

Assay [2] deals with BV-2 cells. Kind of assay: In vitro phagocytosis assay (pHrodo red Zymosan uptake). It is filed as cell-based, mouse. The procedure: (§1) To induce lipid droplet formation, subconfluent BV-2 cells were treated for 18 hours with 5 μg/ml LPS (Lipopolysaccharide from E. coli, Sigma) in DMEM+5% FBS. Controls received vehicle solution (PBS) only. To inhibit lipid droplet formation, BV-2 cells were pre-treated with 1 μM Triacsin C (Cayman Chemical) or vehicle (saline) in DMEM+5% FBS. 30 min after adding Triacsin C, LPS or LPS-vehicle solution were added and cells were co-treated with Triacsin C and LPS for 18 hours.
For in vitro phagocytosis assays, BV-2 cells were split into 96 well plates at 1000 cells per well in DMEM+5% FBS and treated with LPS, Triacsin C and vehicle solutions for 18 hours. Following specific treatments, 5 ng pHRodo Red Zymosan™ Bioparticles (Thermo Fisher Scientific P35364) in 100 μl DMEM+5% FBS were added per well. Four phase contrast and red fluorescent images per well were acquired every 2 hours for 16 hours using the Incucyte S3 live cell analysis system (Essen Bioscience). For each time point, phagocytosis was calculated by normalizing red fluorescent area to phase confluence.

For assay [3], the system named is BV-2 cells. The assay can be described thus: BODIPY in vitro staining of BV-2 cells (confocal counting of BODIPY+ cells). It is filed as cell-based, mouse. The procedure: as §1
BV-2 cells were seeded at 5×10^4 cells on poly-L-lysine coated glass coverslips in DMEM+5% FBS. Following specific treatments, cells were fixed in 4% PFA for 30 min, washed 3× in PBS and incubated in PBS with BODIPY™ 493/503 (1:1000 from 1 mg/ml stock solution in DMSO; ThermoFisher) and Hoechst 33342 (1:2000, ThermoFisher) for 10 min at RT. Sections were washed twice in PBS and mounted on microscope slides with Vectashield (H-1000, Vector Laboratories). Four randomly selected visual fields per coverslip were photographed (40× magnification) using a confocal scanning laser microscope (LSM 700, Zeiss) with LSM software (ZEN 2011). To analyze the percentage of lipid droplet-containing BV-2 cells, numbers of total Hoechst^+ cells and of Hoechst^+ cells with BODIPY^+ lipid droplets were counted and the percentage of BODIPY^+BV-2 cells was calculated.

Assay [4] has as its system BV-2 cells. Kind of assay: BODIPY fluorescence of BV-2 cells by flow cytometry. It is filed as cell-based, mouse. The procedure:
as §1

The test system of assay [5] is BV-2 cells. Kind of assay: Iodo-BODIPY irradiation assay with Calcein AM live cell staining. The assay is classed as cell-based, mouse. The following applies: LPS 5 μg/ml for 18 hours, 3.8 μM iodo-BODIPY for 30 min, green LED irradiation for 3 hours. The procedure: BV-2 cells were treated for 18 hours with 5 μg/ml LPS in DMEM with 5% FBS to induce lipid droplet formation. Controls received vehicle solution (PBS) only. Cells were washed twice in PBS and incubated in 3.8 μM iodo-BODIPY (see FIG. 8, Panel A; iodo-BODIPY was kindly provided by Prof. Carolyn Bertozzi, Chemistry department, Stanford University) in PBS for 30 min in the incubator (5% CO2, 37° C.). Cells were washed twice in PBS and then irradiated under visible light (green LED; 9 W, 150 mA, 2000 lux) for 3 hours at RT. Non-irradiated cells were kept at RT for 3 hours without irradiation.
To assess cell viability after photoirradiation, irradiated and non-irradiated BV-2 cells were stained with 1 μM Calcein AM (Invitrogen) in PBS for 15 min at 37° C. Cells were then examined by fluorescence microscopy (Keyence Corp., Osaka, Japan) and the percentage of green, Calcein^+BV-2 cells (live cells) of total methyl-di-iodo BODIPY^+ cells (red, lipid droplet containing cells) was calculated.

Assay [6] concerns microglia in the hippocampus. Kind of assay: LPS injections in young mice, BODIPY/Iba1 staining of the hippocampus. It is filed as in vivo, mouse. The note with it: 3-month-old mice, i.p. 1 mg LPS/kg BW once daily for four days, compared with vehicle treated controls. On the procedure: 3-month-old wild type mice were injected with LPS (Lipopolysaccharide from E. coli, Sigma), i.p. 1 mg LPS/kg body weight once daily for four consecutive days. Control mice were injected with body weight corresponding volumes of PBS. 24 hours after the last LPS injection mice were euthanized, brains were extracted and brain tissue was processed for immunohistochemistry staining (see Perfusion and tissue processing and Immunohistochemistry and BODIPY staining).
Mice were anesthetized using Avertin (Tribromoethanol) and transcardially perfused with 0.9% NaCl solution. Brains were extracted, fixed in 4% paraformaldehyde for 48 hours, cryoprotected in 30% sucrose and then sectioned sagitally or coronally ([…]) using a freezing microtome (Leica). […]
For quantification of BODIPY^+ microglia, of CD68^hi microglia, of BODIPY^+ lipid droplet numbers and of lipid droplet size, analyses were performed blinded on coded slides. […]
To analyze the percentage of lipid droplet-containing microglia, numbers of total TMEM119^+ or lba1^+ cells and of TMEM119+BODIPY^+ or lba1+BODIPY^+ cells were counted and the percentage of BODIPY^+ microglia was calculated. To assess the percentage of CD68^hi cells, BODIPY^−lba1^+ and BODIPY^+lba1^+ cells with clearly visible CD68 immunoreactive particles were counted and normalized to total BODIPY^−lba1^+ and BODIPY^+lba1^+ cells.

For assay [7], the system named is hippocampal LD-low and LD-high microglia. The assay can be described thus: Cytokine assay on acutely isolated primary microglia (multiplex array). It is filed as cell-based, mouse. The note with it: aged mice, 100 ng/ml LPS for 8 hours; IL-10, CCL3, CCL4, IL-6, CCL5, TNF-α, IL-1β, IL-1α, CXCL1, CXCL10. The procedure: Primary microglia from hippocampi of 3-month (young) and 20-month-old (aged) wild type mice were isolated as described above (see Microglia Isolation, hippocampi from 3 mice were pooled per age group). CD11b^+CD45^lo primary microglia from young mice, and CD11b^+CD45^lo primary microglia sorted for BODIPY^lo and BODIPY^hi cells from aged mice were sorted into 5% FBS-containing microglial culture medium (DMEM/F12, 1% Pen/Strep; 2 mM glutamine; 5 ug/mL N-acetyl cysteine; 5 ug/mL insulin; 100 ug/mL apo-transferrin; 100 ng/mL sodium selenite; 2 ng/mL human TGF-2; 100 ng/mL murine IL-34; 1.5 ug/mL ovine wool cholesterol; 10 ug/mL heparin sulfate)s. Cells were seeded into 96 well plates at 5000 cells per well in 100 μl microglia culture medium with 5% FBS and incubated for 30 min in the incubator (37° C., 5% CO2). Next, cells were treated with 100 ng/ml LPS or PBS for 8 hours, and supernatant was collected and secreted signaling proteins were measured in culture supernatants using the ‘Mouse Cytokine/Chemokine Array 31-Plex’ from Eve Technologies (Canada).

The mark [8] stands for this setting: 1 μM Triacsin C co-treated with LPS (5 μg/ml) for 18 hours.

As for `CCC/C=C/C/C=C/C=C/C=N/NN=O` [Triacsin C], in the assay with BV-2 cells [1] (setting [8]), the “ROS levels (CellROX fluorescence) in LPS-treated cells” value was “significantly reduce ROS levels”. Besides, in the assay on BV-2 cells [2] (setting [8]), the “pHrodo red Zymosan phagocytosis in LPS-treated cells” value is recorded as “increased Zymosan phagocytosis”. Moreover, in the assay with BV-2 cells [3] (setting [8]), the “effect on LPS-induced increase in BODIPY+ cells” value is given as “abolished the LPS-induced increase”. The “effect on BODIPY+ signal in LPS-stimulated BV-2 cells by flow cytometry” value in the assay on BV-2 cells [4] (setting [8]) is on record as “inhibited an increase”.

As to iodo-BODIPY [iBP], the “cell killing after photoirradiation of iBP+ BV-2 cells (Calcein live cell imaging)” value in the assay on BV-2 cells [5] is listed as “selectively killed lipid-droplet rich cells”.

For Lipopolysaccharide from E. coli [LPS], the “ROS generation (CellROX fluorescence) in BV-2 cells” value with BV-2 cells [1] (5 μg/ml LPS for 18 hours) is “induced elevated ROS generation”. The “increase in lipid droplet containing microglia (BODIPY+Iba1+) in the hippocampus” value in assay [6] is “twofold increase”. Moreover, the “phagocytosis (pHrodo red Zymosan uptake) in BV-2 cells” value in the assay with BV-2 cells [2] (5 μg/ml LPS for 18 hours) is reported as “significantly increased phagocytosis”. Moreover, the “cytokine release of LD-high microglia compared to LD-low microglia upon LPS treatment” value in assay [7] is reported as “strongly exaggerated release of multiple cytokines”. Besides, in the assay with BV-2 cells [3] (5 μg/ml LPS for 18 hours, compared with control BV-2 cells), the “increase of lipid droplet containing BODIPY+ BV-2 cells” value is 5 fold. For the same molecule, in the assay on BV-2 cells [4] (5 μg/ml LPS for 18 hours), the “BODIPY+ fluorescence by flow cytometry” value is reported as “significantly increased”.

These data come from patent US20220010300A1, “METHODS OF TREATING NEURODEGENERATIVE DISORDERS AND IDENTIFYING TARGETS THEREFORE” (The Board of Trustees of the Leland Stanford Junior …, priority 2019, published 2022).
